Where “and” joins values, the source holds several entries; their conditions need not be identical. Equal entries are not always repeated. Where two headings read alike, the source gives them in different places. Where a SMILES comes first, the peptide text is derived from it.
Experiments:
[1] = molecular target: SARS-CoV-2 PLpro (Severe acute respiratory syndrome coronavirus 2, UniProt P0DTD1); experiment: biochemical
[2] = system: SARS-CoV-2; experiment: microbe, parasite or virus in culture; type: cell-based, SARS-CoV-2 (nCoV/Washington/1/2020) in Vero E6 cells; settings: for inhibition of virus replication: Vero E6, SARS-CoV-2; for Percent Spike Positive Cells: relative to DMSO treated cells, single replicates
[3] = molecular target: T1, PLpro-WT (Severe acute respiratory syndrome coronavirus 2, UniProt P0DTD1); type: biochemical
T1 construct: PLpro is a domain of Nsp3—a large multidomain protein; made in house; host or cells: E. coli BL21(DE3)-Gold

## Cc1ccc(NC(=O)NC(N)=O)cc1C(=O)N[C@H](C)c1cccc2ccccc12 [Compound 2, 5-carbamylurea-2-methyl-N-[(1R)-1-naphthalen-1-ylethyl]benzamide]
[1]; Log(M) -3.69897, listed as 2 (Snyder495)
  PLpro assay signal (source data Figure 2, single replicates): 60 and 59 and 86
[1]; Log(M) -4, listed as 2 (Snyder495)
  PLpro assay signal (source data Figure 2, single replicates): 70 and 66 and 64
[1]; Log(M) -4.39794, listed as 2 (Snyder495)
  PLpro assay signal (source data Figure 2, single replicates): 92 and 85 and 99
[1]; Log(M) -4.69897, listed as 2 (Snyder495)
  PLpro assay signal (source data Figure 2, single replicates): 136 and 126 and 144
[1]; Log(M) -5.09691, listed as 2 (Snyder495)
  PLpro assay signal (source data Figure 2, single replicates): 203 and 179 and 181
[1]; Log(M) -5.39794, listed as 2 (Snyder495)
  PLpro assay signal (source data Figure 2, single replicates): 314 and 305 and 289
[1]; Log(M) -5.79588, listed as 2 (Snyder495)
  PLpro assay signal (source data Figure 2, single replicates): 365 and 343 and 315
[1]; Log(M) -6.09691, listed as 2 (Snyder495)
  PLpro assay signal (source data Figure 2, single replicates): 476 and 447 and 368
[1]; Log(M) -6.49485, listed as 2 (Snyder495)
  PLpro assay signal (source data Figure 2, single replicates): 414 and 419 and 416
[1]; Log(M) -6.79588, listed as 2 (Snyder495)
  PLpro assay signal (source data Figure 2, single replicates): 421 and 453 and 465
[1]; pH 7.3, read-out: IC50
  IC50: 5.1 µM
[2]
  inhibition of virus replication: failed

## C=CC(=O)Nc1ccc(C)c(C(=O)N[C@H](C)c2cccc3ccccc23)c1 [Compound 3, 5-acrylamide-2-methyl-N-[(1R)-1-naphthalen-1-ylethyl]benzamide]
[1]; Log(M) -3.69897, listed as 3 (Snyder530)
  PLpro assay signal (source data Figure 2, single replicates): 91 and 88 and 87
[1]; Log(M) -4, listed as 3 (Snyder530)
  PLpro assay signal (source data Figure 2, single replicates): 107 (2×) and 106
[1]; Log(M) -4.39794, listed as 3 (Snyder530)
  PLpro assay signal (source data Figure 2, single replicates): 175 (2×) and 163
[1]; Log(M) -4.69897, listed as 3 (Snyder530)
  PLpro assay signal (source data Figure 2, single replicates): 282 and 274 and 281
[1]; Log(M) -5.09691, listed as 3 (Snyder530)
  PLpro assay signal (source data Figure 2, single replicates): 401 and 387 and 371
[1]; Log(M) -5.39794, listed as 3 (Snyder530)
  PLpro assay signal (source data Figure 2, single replicates): 551 and 511 and 480
[1]; Log(M) -5.79588, listed as 3 (Snyder530)
  PLpro assay signal (source data Figure 2, single replicates): 638 and 706 and 719
[1]; Log(M) -6.09691, listed as 3 (Snyder530)
  PLpro assay signal (source data Figure 2, single replicates): 726 and 781 and 797
[1]; Log(M) -6.49485, listed as 3 (Snyder530)
  PLpro assay signal (source data Figure 2, single replicates): 808 and 740 and 787
[1]; Log(M) -6.79588, listed as 3 (Snyder530)
  PLpro assay signal (source data Figure 2, single replicates): 765 and 796 and 803
[1]; pH 7.3, read-out: IC50
  IC50: 6.4 µM
[2]
  inhibition of virus replication: failed

## Nc1cc(C(=O)Nc2cccc3ccccc23)cc(C(F)(F)F)c1 [Compound 4]
[1]; IC50
  IC50: 43.2 ± 9.4 µM
[1]; Log(M) -0.30103, listed as 4 (Snyder550)
  PLpro assay signal (source data Figure 2, single replicates): 498 and 310 and 468
[1]; Log(M) -0.60206, listed as 4 (Snyder550)
  PLpro assay signal (source data Figure 2, single replicates): 426 and 463 and 490
[1]; Log(M) -1, listed as 4 (Snyder550)
  PLpro assay signal (source data Figure 2, single replicates): 617 and 632 and 562
[1]; Log(M) -1.30103, listed as 4 (Snyder550)
  PLpro assay signal (source data Figure 2, single replicates): 679 and 720 and 747
[1]; Log(M) -1.69897, listed as 4 (Snyder550)
  PLpro assay signal (source data Figure 2, single replicates): 956 and 920 and 944
[1]; Log(M) -2, listed as 4 (Snyder550)
  PLpro assay signal (source data Figure 2, single replicates): 1073 and 1048 and 930
[1]; Log(M) -2.39794, listed as 4 (Snyder550)
  PLpro assay signal (source data Figure 2, single replicates): 1192 and 1138 and 1087
[1]; Log(M) -2.69897, listed as 4 (Snyder550)
  PLpro assay signal (source data Figure 2, single replicates): 1318 and 1220 and 924
[1]; Log(M) -3.09691, listed as 4 (Snyder550)
  PLpro assay signal (source data Figure 2, single replicates): 1177 and 1051 and 1092
[1]; Log(M) -3.39794, listed as 4 (Snyder550)
  PLpro assay signal (source data Figure 2, single replicates): 1045 and 1012 and 1221
[2]; Severe acute respiratory syndrome coronavirus 2, Vero C1008, 24 h, read-out: EC50
  EC50: 1.7 ± 4.4 µM
[2]
  inhibition of virus replication: inhibiting virus replication
[2]; [Drug] 0.1 uM
  Percent Spike Positive Cells: 75% and 100% and 88%
[2]; [Drug] 1 uM
  Percent Spike Positive Cells: 88% and 81% and 63%
[2]; [Drug] 10 uM
  Percent Spike Positive Cells: 0%

## CC(=O)N[C@@H](CC(C)C)C(=O)N[C@@H](CCCCN)C(=O)NCC(=O)NCC(=O)Nc1ccc2c(C)cc(=O)oc2c1 [probe] (HELM PEPTIDE1{[ac].L.K.G.G.[Cc1cc(=O)oc2cc(N[*:1])ccc12]}$$$$V2.0)
[3]; 0.1 M PLP, time point 8
  fluorescence: 103 and 110 and 118
  fluorescence normalised to probe only: 2.146 and 2.292 and 2.458
[3]; 0.1 M PLP, time point 9
  fluorescence: 107 and 115 and 122
  fluorescence normalised to probe only: 2.229 and 2.396 and 2.542
[3]; 0.1 M PLP, time point 10
  fluorescence: 111 and 120 and 127
  fluorescence normalised to probe only: 2.3125 and 2.5 and 2.646
[3]; 0.1 M PLP, time point 11
  fluorescence: 115 and 124 and 132
  fluorescence normalised to probe only: 2.396 and 2.583 and 2.75
[3]; 0.1 M PLP, time point 12
  fluorescence: 115 and 129 and 133
  fluorescence normalised to probe only: 2.396 and 2.6875 and 2.771
[3]; 0.1 M PLP, time point 13
  fluorescence: 120 and 131 and 139
  fluorescence normalised to probe only: 2.5 and 2.729 and 2.896
[3]; 0.1 M PLP, time point 14
  fluorescence: 123
  fluorescence normalised to probe only: 2.5625 and 2.833 and 2.979
[3]; 0.2 M PLP, time point 8
  fluorescence: 260 and 288 and 278
  fluorescence normalised to probe only: 5.417 and 6 and 5.792
[3]; 0.2 M PLP, time point 9
  fluorescence: 295 and 313 and 300
  fluorescence normalised to probe only: 6.146 and 6.521 and 6.25
[3]; 0.2 M PLP, time point 10
  fluorescence: 321 and 335 and 319
  fluorescence normalised to probe only: 6.6875 and 6.979 and 6.646
[3]; 0.2 M PLP, time point 11
  fluorescence: 337 and 357 and 345
  fluorescence normalised to probe only: 7.021 and 7.4375 and 7.1875
[3]; 0.2 M PLP, time point 12
  fluorescence: 357 and 377 and 368
  fluorescence normalised to probe only: 7.4375 and 7.854 and 7.667
[3]; 0.2 M PLP, time point 13
  fluorescence: 379 and 400 and 381
  fluorescence normalised to probe only: 7.896 and 8.333 and 7.9375
[3]; 0.2 M PLP, time point 14
  fluorescence normalised to probe only: 8.167 and 8.792 and 8.417
[3]; 0.3 M PLP, time point 8
  fluorescence: 443 and 452 and 474
  fluorescence normalised to probe only: 9.229 and 9.417 and 9.875
[3]; 0.3 M PLP, time point 9
  fluorescence: 481 and 493 and 520
  fluorescence normalised to probe only: 10.0208 and 10.2708 and 10.8333
[3]; 0.3 M PLP, time point 10
  fluorescence: 519 and 530 and 558
  fluorescence normalised to probe only: 10.8125 and 11.0417 and 11.625
[3]; 0.3 M PLP, time point 11
  fluorescence: 560 and 573 and 600
  fluorescence normalised to probe only: 11.6667 and 11.9375 and 12.5
[3]; 0.3 M PLP, time point 12
  fluorescence: 594 and 609 and 643
  fluorescence normalised to probe only: 12.375 and 12.6875 and 13.3958
[3]; 0.3 M PLP, time point 13
  fluorescence: 632 and 646 and 681
  fluorescence normalised to probe only: 13.1667 and 13.4583 and 14.1875
[3]; 0.3 M PLP, time point 14
  fluorescence: 671 and 682 and 717
  fluorescence normalised to probe only: 13.9792 and 14.2083 and 14.9375
[3]; 0.5 M PLP, time point 8
  fluorescence: 891 and 894 and 883
  fluorescence normalised to probe only: 18.5625 and 18.625 and 18.3958
[3]; 0.5 M PLP, time point 9
  fluorescence: 972 and 978 and 964
  fluorescence normalised to probe only: 20.25 and 20.375 and 20.0833
[3]; 0.5 M PLP, time point 10
  fluorescence: 1053 and 1058 and 1040
  fluorescence normalised to probe only: 21.9375 and 22.0417 and 21.6667
[3]; 0.5 M PLP, time point 11
  fluorescence: 1137 and 1139 and 1118
  fluorescence normalised to probe only: 23.6875 and 23.7292 and 23.2917
[3]; 0.5 M PLP, time point 12
  fluorescence: 1204 and 1214 and 1189
  fluorescence normalised to probe only: 25.0833 and 25.2917 and 24.7708
[3]; 0.5 M PLP, time point 13
  fluorescence: 1275 and 1287 and 1260
  fluorescence normalised to probe only: 26.5625 and 26.8125 and 26.25
[3]; 0.5 M PLP, time point 14
  fluorescence: 1338 and 1358 and 1327
  fluorescence normalised to probe only: 27.875
[3]; 1.0 M PLP, time point 8
  fluorescence: 1812 and 1755 and 1796
  fluorescence normalised to probe only: 37.75 and 36.5625 and 37.4167
[3]; 1.0 M PLP, time point 9
  fluorescence: 1958 and 1902 and 1937
  fluorescence normalised to probe only: 40.7917 and 39.625 and 40.3542
[3]; 1.0 M PLP, time point 10
  fluorescence: 2101 and 2025 and 2064
  fluorescence normalised to probe only: 43.7708 and 42.1875 and 43
[3]; 1.0 M PLP, time point 11
  fluorescence: 2228 and 2143 and 2197
  fluorescence normalised to probe only: 46.4167 and 44.6458 and 45.7708
[3]; 1.0 M PLP, time point 12
  fluorescence: 2329 and 2259 and 2313
  fluorescence normalised to probe only: 48.5208 and 47.0625 and 48.1875
[3]; 1.0 M PLP, time point 13
  fluorescence: 2450 and 2363 and 2423
  fluorescence normalised to probe only: 51.0417 and 49.2292 and 50.4792
[3]; 1.0 M PLP, time point 14
  fluorescence: 2548 and 2459 and 2512
